SMILES strings stand for the structures. A value given as a limit tells only on which side of the number the result lay.

Broadly, the IC50 is the midpoint of a concentration-inhibition curve. Read a low IC50 as greater potency in that assay.

Sequence of RORγt (P51449 269-508): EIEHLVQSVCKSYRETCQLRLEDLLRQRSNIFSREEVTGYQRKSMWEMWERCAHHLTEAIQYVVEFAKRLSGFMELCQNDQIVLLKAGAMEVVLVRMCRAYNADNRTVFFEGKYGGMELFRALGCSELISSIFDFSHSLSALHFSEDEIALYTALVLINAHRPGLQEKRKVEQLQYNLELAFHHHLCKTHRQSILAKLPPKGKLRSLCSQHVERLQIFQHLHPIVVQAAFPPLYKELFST

The target of this assay is RORγt (Homo sapiens (Human), UniProt P51449). Description: Gal4 ligand binding assay (RORγt Gal fusion luciferase reporter assay in HEK293T cells). Format: cell-based. Conditions: RORγt inverse agonists in RORγt Gal fusion assay. An outline of the steps:
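Stable HEK293T line expressing the receptor fused to the Gal4 DBD, with a Gal4 UAS-driven luciferase; constitutively active, so agonism and inverse agonism both register. 10-point 1:3 titrations, 60 μM to 3 nM as prepared in media (added as 2×), 0.2% final DMSO; 24 h at 37 °C. Luminescence normalised to vehicle-only wells.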
(In general: A reporter such as luciferase makes a cellular process visible.)
As to `CC(C)(C)c1cc(CN2CC3(C2)CN(S(C)(=O)=O)C3)ccc1-c1ccc(C(O)(C(F)(F)F)C(F)(F)F)cc1` [Example 23, 2-(2′-(tert-butyl)-4′-((6-(methylsulfonyl)-2,6-diazaspiro[3.3]heptan-2-yl)methyl)-[1,1′-biphenyl]-4-yl)-1,1,1,3,3,3-hexafluoropropan-2-ol], the IC50 was under 50 nM.
Next, `Cc1cc(C(O)(C(F)(F)F)C(F)(F)F)ccc1-c1c(F)cc(CN2CC3(C2)CN(S(C)(=O)=O)C3)c(F)c1C(C)C` [Example 84, 2-(3′,6′-difluoro-2′-isopropyl-2-methyl-4′-((6-(methylsulfonyl)-2,6-diazaspiro[3.3]heptan-2-yl)methyl)-[1,1′-biphenyl]-4-yl)-1,1,1,3,3,3-hexafluoropropan-2-ol]: under 50 nM; `CCc1c(F)c(CN2CC3(C2)CN(S(C)(=O)=O)C3)cc(F)c1-c1ccc(C(O)(C(F)(F)F)C(F)(F)F)cc1` [Example 69, 2-(2′-ethyl-3′,6′-difluoro-4′-((6-(methylsulfonyl)-2,6-diazaspiro[3.3]heptan-2-yl)methyl)-[1,1′-biphenyl]-4-yl)-1,1,1,3,3,3-hexafluoropropan-2-ol]: under 50 nM.
Next, `CCc1c(F)c(CN2CC3(C2)CN(S(C)(=O)=O)C3)cc(F)c1-c1ccc(C(O)(C(F)(F)F)C(F)(F)F)cc1F` [Example 70, 2-(2′-ethyl-2,3′,6′-trifluoro-4′-((6-(methylsulfonyl)-2,6-diazaspiro[3.3]heptan-2-yl)methyl)-[1,1′-biphenyl]-4-yl)-1,1,1,3,3,3-hexafluoropropan-2-ol]: under 50 nM; `CCc1cc(CN2CC3(C2)CN(S(C)(=O)=O)C3)c(F)cc1-c1ccc(C(O)(C(F)(F)F)C(F)(F)F)cc1Cl` [Example 83, 2-(2-chloro-2′-ethyl-5′-fluoro-4′-((6-(methylsulfonyl)-2,6-diazaspiro[3.3]heptan-2-yl)methyl)-[1,1′-biphenyl]-4-yl)-1,1,1,3,3,3-hexafluoropropan-2-ol]: under 50 nM.
Turning to `CCc1cc(CN2CC3(CC[S+]([O-])C3)C2)ccc1-c1ccc(C(O)(C(F)(F)F)C(F)(F)F)cc1` (stereo not shown) [Example 25, 2-((2-ethyl-4′-(1,1,1,3,3,3-hexafluoro-2-hydroxypropan-2-yl)-[1,1′-biphenyl]-4-yl)methyl)-6-thia-2-azaspiro[3.4]octane 6-oxide], the IC50 is over 250 nM.
Next, `CCc1cc(CN2CC3(C2)CN(C(C)=O)C3)ccc1-c1ccc(C(O)(C(F)(F)F)C(F)(F)F)cc1` [Example 48, 1-(6-((2-ethyl-4′-(1,1,1,3,3,3-hexafluoro-2-hydroxypropan-2-yl)-[1,1′-biphenyl]-4-yl)methyl)-2,6-diazaspiro[3.3]heptan-2-yl)ethan-1-one]: over 250 nM; `CCc1cc(CN2CC3(C2)CN(C(=O)OC)C3)ccc1-c1ccc(C(O)(C(F)(F)F)C(F)(F)F)cc1` [Example 40, methyl 6-((2-ethyl-4′-(1,1,1,3,3,3-hexafluoro-2-hydroxypropan-2-yl)-[1,1′-biphenyl]-4-yl)methyl)-2,6-diazaspiro[3.3]heptane-2-carboxylate]: 50 to 250 nM.
Consider `CCc1c(F)c(CN2CC3(C2)CN(S(C)(=O)=O)C3)cc(F)c1-c1ccc(C(O)(C(F)(F)F)C(F)(F)F)cc1C` [Example 68, 2-(2′-ethyl-3′,6′-difluoro-2-methyl-4′-((6-(methylsulfonyl)-2,6-diazaspiro[3.3]heptan-2-yl)methyl)-[1,1′-biphenyl]-4-yl)-1,1,1,3,3,3-hexafluoropropan-2-ol], for which the IC50 was under 50 nM.
Next, `CCc1cc(CN2CC3(C2)CN(S(=O)(=O)CC)C3)ccc1-c1ccc(C(O)(C(F)(F)F)C(F)(F)F)cc1` [Example 22, 2-(2′-ethyl-4′-((6-(ethylsulfonyl)-2,6-diazaspiro[3.3]heptan-2-yl)methyl)-[1,1′-biphenyl]-4-yl)-1,1,1,3,3,3-hexafluoropropan-2-ol]: 50 to 250 nM.

(Values after patent US11242350B2, “Spirocyclic ROR-gamma modulators” (Escalier Biosciences B.V., priority 2018, dated 2022).)
